Earlier results, collected in patent publication US20240042038A1, “FORMULATIONS OF CABAZITAXEL” (Zhuhai Beihai Biotech Co., Ltd., priority 2020, published 2024).

For `CO[C@H]1C(=O)[C@]2(C)[C@@H](OC)C[C@H]3OC[C@@]3(OC(C)=O)[C@H]2[C@H](OC(=O)c2ccccc2)[C@]2(O)C[C@H](OC(=O)[C@H](O)[C@@H](NC(=O)OC(C)(C)C)c3ccccc3)C(C)=C1C2(C)C` [Cabazitaxel, cabazitaxel], the solubility in alcohol is listed as “soluble” and the solubility in water is listed as “practically insoluble”.
